Measurements published in patent US10464957B2, “Oxidized lipids and methods of use thereof” (Vascular Biogenics Ltd., priority 2014, dated 2019).

How the values were obtained:
[1] = tested on: human monocytes (primary CD14+); assay: Chemokine-induced cell migration trans-well assay; assay type: cell-based; settings: RANTES 100 ng/ml and MCP-1 50 ng/ml, 2-4 hours, FACS count
Experimental: Venous blood samples were obtained from healthy male donors in compliance with the Institutional Review Board at the Sheba Medical Center, Ramat Gan, Israel. PBMCs were isolated on Ficoll-Paque PLUS (GE Healthcare, Uppsala, Sweden) using 50 ml Leucosep tubes (Greiner Bio-One, Frickenhausen, Germany). Cells were washed in PBS (Kibbutz Beit Haemek, Israel) and incubated at 4° C. for 15 minutes in a buffer containing PBS and 0.5% bovine serum albumin (BSA) with human CD14 microbeads (Miltenyi Biotec, Bergisch Gladbach, Germany).
Cells (10^6/ml) were pretreated for 20 min with VB-201 or VB-701 at the doses indicated in FIG. 5, or with solvent (Sol).
To test for chemokine-induced cell migration, RANTES (100 ng/ml; Cat. No. 300-06, PeproTech, Israel) and MCP-1 (50 ng/ml; Cat. No. 300-04, PeproTech, Israel) were dissolved in RPMI-1640 medium supplemented with 0.5% fetal bovine serum (FBS) and placed at the lower chamber of QCM 24-well, […], migration assay plates (Corning-Costar, Corning, N.Y.). Cells (3×10^5) were seeded in the upper chamber and incubated for 2-4 hours. Subsequently, the number of cells which migrated to the lower compartment was determined by fluorescence-activated cell sorting (FACS).

[2] = target: T1, TLR4 complex (Homo sapiens, UniProt O00206+Q9Y6Y9); assay: LPS binding inhibition assay (biotin-LPS, FACS); settings: biotin-LPS 100 ng/ml, FACS
T1 construct: endogenous in cells; probably the human primary monocytes of b454
T1 sequence (O00206 24-839): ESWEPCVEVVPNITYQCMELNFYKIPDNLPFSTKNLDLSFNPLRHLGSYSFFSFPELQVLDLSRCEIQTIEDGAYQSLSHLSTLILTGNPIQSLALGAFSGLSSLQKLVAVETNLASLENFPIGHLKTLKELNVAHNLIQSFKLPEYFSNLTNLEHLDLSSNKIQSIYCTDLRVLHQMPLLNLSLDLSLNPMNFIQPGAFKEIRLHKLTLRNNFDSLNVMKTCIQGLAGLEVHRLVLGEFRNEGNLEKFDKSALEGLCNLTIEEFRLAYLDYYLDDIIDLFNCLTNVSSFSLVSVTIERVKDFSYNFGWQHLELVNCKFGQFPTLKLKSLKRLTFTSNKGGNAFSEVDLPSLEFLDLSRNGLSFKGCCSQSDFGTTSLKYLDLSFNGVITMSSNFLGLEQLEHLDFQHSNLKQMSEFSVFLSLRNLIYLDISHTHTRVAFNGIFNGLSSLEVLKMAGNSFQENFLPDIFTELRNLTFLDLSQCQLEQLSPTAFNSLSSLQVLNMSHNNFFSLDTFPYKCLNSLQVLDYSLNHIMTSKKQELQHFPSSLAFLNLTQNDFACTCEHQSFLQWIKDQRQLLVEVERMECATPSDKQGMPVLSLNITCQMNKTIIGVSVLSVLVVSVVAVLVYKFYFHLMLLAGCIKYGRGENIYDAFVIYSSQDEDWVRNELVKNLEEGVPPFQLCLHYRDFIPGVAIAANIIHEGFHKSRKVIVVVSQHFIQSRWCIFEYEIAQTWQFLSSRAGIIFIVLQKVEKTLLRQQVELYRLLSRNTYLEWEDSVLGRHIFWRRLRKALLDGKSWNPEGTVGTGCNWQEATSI
T1 sequence (Q9Y6Y9 17-160 limits assumed): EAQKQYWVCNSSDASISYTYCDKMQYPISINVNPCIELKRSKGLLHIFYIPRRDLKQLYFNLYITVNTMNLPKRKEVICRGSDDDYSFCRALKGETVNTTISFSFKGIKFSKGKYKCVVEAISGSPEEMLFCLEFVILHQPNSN
Experimental: To assess interference with lipopolysaccharide (LPS) binding, VB-201 or VB-703 were incubated for 20 min with cells (10^6/ml) after which 100 ng/ml of biotin-LPS (InvivoGen) was added for an additional 15 minutes, all at 4° C. Cells were washed, resuspended in FACS buffer and analyzed on a FACS-Calibur device.

[3] = tested on: NASH-induced mice; assay: NASH and liver fibrosis mouse model (STZ + HFD), liver histology; assay type: in vivo; settings: VB-703 4 mg/kg, telmisartan 10 mg/kg, once daily for three weeks
Experimental: Neonatal male mice exposed to low-dose streptozotocin (STZ) develop liver steatosis with diabetes. Continuous high fat diet (HFD) increases lobular inflammation with foam cell-like macrophages, showing nonalcoholic steatohepatitis (NASH) pathology. NASH was induced in 40 male mice by a single subcutaneous injection of 200 μg per mouse of STZ two days after birth and feeding HFD [57 kcal % fat]) from four weeks of age. Vehicle, VB-703 (4 mg/kg), or telmisartan (10 mg/kg) as positive control, were administered once daily for three weeks, starting from six weeks of age. Mice were sacrificed at nine weeks of age.
Liver pathology was used to determine the effect of VB-703 on liver inflammation and fibrosis. Histology slides were stained with hematoxylin/eosin (H&E) to assess inflammation. The inflammation score was determined as follows:
Histology slides were stained with Sirius red to determine collagen content as a marker for the extent of fibrosis.

[4] = tested on: nephrectomized rats; assay: 5/6 nephrectomy chronic renal disease rat model (focal and segmental glomerulosclerosis); assay type: in vivo, Sprague Dawley (SD) Rats; settings: VB-703 4 mg/kg
Experimental: Male Sprague Dawley (SD) Rats (Harlan Laboratories, Israel) with an initial weight of 200 g were housed 2-3 per cage in IVC cages in dedicated HVAC (heat, ventilation, air conditioning animal facility at a temperature of 22±2° C. and RH (relative humidity) of 55±15%). Temperature and humidity were monitored continuously. The facility had no exposure to outside light and was maintained on automatic alternating cycles of 12 hours of light and 12 hours of dark. Animals were provided with a commercial rodent diet (Harlan Teklad TRM Rat/Mouse Diet) ad libitum and allowed free access to autoclaved water, supplied to each cage via polysulphone bottles with stainless steel sipper tubes. All animal work was approved by the Animal Care and Use Committee of Israel (IL-13-03-027).
Rats were divided into three groups: (1) Healthy rats (n=3) in group A, (2) Sham group—subjected to chirurgical process but without kidney mass reduction (n=3) in group B, and (3) the rest were induced with chronic renal failure (n=32). Chronic renal failure was induced by a two stage (5/6) nephrectomy (Nx), with subtraction firstly of about ⅔ of the left kidney by left flank incision and, one week later, complete removal of the right kidney. General anesthesia consisted of intraperitoneal injection of ketamine 100 mg/kg and xylazine 20 mg/kg (0.85 ml ketamine+0.15 ml xylazine for each ml preparation; 1 μl/g BW was injected I.P).
One week following the second surgery, rats were randomly assigned to the following experimental groups:
Nephrectomized, orally administered with VB-703 4 mg/kg (n=8); and
Nephrectomized, orally administered with telmisartan 10 mg/kg as positive control (n=8).
Body weight (BW) was monitored throughout the study and rats were treated by oral gavage according to their body weight for 7 weeks. Rats were sacrificed by CO2 inhalation 8 weeks from removal of the right kidney (2nd surgery).
Proteinuria and albuminuria was determined in urine specimens, collected during a 24-hour period, from animals housed in cages at 4 weeks (3 w of treatment) and 8 weeks (7 w of treatment) after the subtotal nephrectomy (2nd surgery). Urine samples were analyzed for: glucose, urea, sodium, potassium, creatinine, total protein, and albumin.
Upon sacrifice, at 8 weeks, kidneys were collected, weighed and fixed in 4% formaldehyde.
For light microscopy, paraffin-embedded tissue slides of 4 μm were stained with Periodic Acid-Schiff (PAS) reagent, Masson's Trichrome and Hematoxylin & Eosin.
Glomerular sclerosis index. Glomerulosclerosis was assessed by PAS-stained sections using a semiquantitative scoring system. The extent of glomerulosclerosis was evaluated by examining mostly 100 randomly selected glomeruli at a magnification of ×400 and applying a score system according to the percentage of sclerosed glomerular area. The score was graded from 0 to 4: (0=0% area; 1=1-25%; 2=26-50%, 3=51-75%, 4=76% and above). The mean of all scored glomeruli was presented. Moreover, the extent of global and segmental glomerulosclerosis was evaluated in the same glomeruli, where <80% sclerosis was referred to as segmental and >80% was referred to as global.
Glomerular area. The glomerular area of mostly 100 randomly selected glomeruli at a magnification of ×100 was quantitated by counting squares covered by glomeruli area using a grid and the mean glomeruli area was calculated.
Renal tissues were fixed in 4% formaldehyde and embedded in paraffin. The paraffin-embedded tissues were then cut to form tissue slides of 4 μm. Immunohistochemistry of the paraffin-embedded tissue slides was analyzed using antibodies in the following concentration: monoclonal mouse anti rat CD-68 (ED-1, Serotec MCA341) 1:25. For quantitation of interstitial CD68+ staining, the number of positive cells was counted in 20 randomly selected non-overlapping fields per animal, and the mean value was presented. […]

[5] = tested on: kidney of nephrectomized rats; assay: Real-time PCR of pro-fibrotic markers in kidney of nephrectomized rats; assay type: in vivo, Sprague Dawley (SD) Rats
Experimental: Kidney RNA was extracted with an RNeasy Fibrous Tissue Mini kit (Qiagen) and after DNAse I treatment, single-stranded cDNA was synthesized from 2 μg total RNA using the qScript cDNA Synthesis Kit (Quanta Biosciences) and diluted for real-time PCR. The expression of collagen 4α, fibronectin and TGFβ was quantified using the 7300 Real Time PCR System (Applied Biosystems). The assay was performed according to manufacturer instructions using the primers (Assay ID) represented at the table below supplied by Applied Biosystems. Data were normalized to the reference gene TATA box Binding Protein (TBP) and presented as relative mRNA levels compared with Sham PBS 0.5% Eth treatment (Table 1).

[6] = Nx rats, Telmisartan 10 mg/kg, 8 weeks, Mean ± S.E
[7] = telmisartan 10 mg/kg, oral 7 weeks, vs Nx PBS 0.5% Eth
[8] = compared to Nx PBS 0.5% Eth treatment, VB-703 4 mg/kg, telmisartan 10 mg/kg
[9] = normalized to TBP, relative to Sham PBS 0.5% Eth, mean±SEM

Row | LPS-biotin binding to human monocytes (primary CD14+) [2] | Structure (SMILES) | chemokine-induced migration of human monocytes [1] | decrease of liver fibrosis compared to vehicle treated mice (Sirius red) [3] | Glomerular sclerosis Global % [4, 6] | Glomerular sclerosis Global & Segmental % [4, 6] | Glomerular sclerosis Segmental % [4, 6] | glomerular and interstitial monocyte/macrophage infiltration (CD68 positive cells) ([4]; telmisartan 10 mg/kg, 8 weeks) | reduction of damaged glomeruli percent [4, 7] | reduction of sclerotic glomeruli [4, 7] | reduction of Collagen IV expression [5, 8] | reduction of TGF-β expression [5, 8] | reduction of fibronectin expression [5, 8] | Collagen IV mRNA expression (relative mRNA level) [5, 9] | TGF-β mRNA expression (relative mRNA level) [5, 9] | fibronectin mRNA expression (relative mRNA level) [5, 9]
1 | does not inhibit | CCCCCCCCCCCCCCCCOCC(COP(=O)([O-])OCC[n+]1ccccc1)OCCCCC(=O)OC (stereo not drawn) [VB-704, 1-hexadecyl-2-(4′-carboxymethyl)butyl-glycero-sn-3-phosphoric acid pyridiniumethyl ester] | inhibits |  |  |  |  |  |  |  |  |  |  |  |  | 
2 |  | CCCc1nc2c(C)cc(-c3nc4ccccc4n3C)cc2n1Cc1ccc(-c2ccccc2C(=O)O)cc1 [telmisartan, reference compound] |  | 47% | 1.9 ± 1.60% | 21.0 ± 5.45% | 19.1 ± 4.30% | did not produce a significant effect | 31% | 57% | 41% | 44% | 23% | 4.4±0.23 | 4.7±0.52 | 9.8±2.09
